# Source: PMC3867523 (Journal of hepatology, 2013)
# Ends that are not written are not given here.
# Biological target: HLA-B*27:05 (Homo sapiens, UniProt P01889, D138H/D201E/E176V/E204Q/G107R/H137Y/K202T/N104T/N87E/Q56L/Q94K/R106L/R155S/R180L/S101D/S121N/S48T/Y140D/Y33H/Y91C)
# Assay: biochemical
# Assay type: binding
row,Sequence,IC50
1,GRAAICGKY [NS5B-2936],1 nM
2,ARMILMTHF [NS5B-2841],1.1 nM
3,ARHTPVNSW [NS5B-2820],338 nM
